Values joined by “and” are separate entries in the source; they are usually repeats but may differ in a detail not shown here. Equal values may be shown once. “Also recorded” adds a separate entry of the source. Read-outs that look alike come from different tables or passages of the source.

The target of test [1] is T1, AANAT (Ovis aries, UniProt Q29495). Nature of the test: Tryptamine analogs as AANAT substrates, steady-state kinetic parameters. As to the method: Expression of eukaryotic proteins in bacteria is unpredictable.
The enzymatic assays available for AANAT were direct, radioactive assays. […] Thus indirect methods to measure CoASH formation were tested.
The first objective of these studies was to determine the tolerance of alkyl chain length for substrate processing efficiency. […] Indole-propylamine (7.1) and indole-butylamines(7.2) are not commercially available and were prepared as shown (FIG. 7) (6l).
Another important selectivity issue was addressing the effects of a-methyl and Nw-methyl-substitutions of tryptamine analogs (FIG. 8) on AANAT catalysis. […] These compounds were obtained from commercial sources and tested as AANAT substrates. […] Using these compounds.

Test [2] addresses T1, AANAT. Nature of the test: a-Trifluoromethyltryptamine tested as AANAT substrate and competitive inhibitor. The format is biochemical, sheep. On the set-up: The entire open reading frame of the DNA encoding sheep AANAT in the plasmid vector pET15b; GST (glutathione S-transferase, thrombin-cleavable) (N); made in house; host or cells: Escherichia coli. The protocol:
Expression of eukaryotic proteins in bacteria is unpredictable. Indeed, efforts to express the rat and human AANAT protein in E. coli have so far been unsuccessful. In contrast, the sheep enzyme which is 80% identical at the amino acid level to rat and human can be expressed in E. coli as a soluble protein (51). GST-AANAT can be obtained in approximately 90% purity with a yield of 5-10 mg/L of E. coli culture after purification with glutathione-agarose. Optimization of conditions for production of this fusion protein has led to the induction being carried out at 22-24° C. for 5-6 h after 0.2 mM IPTG to prevent inclusion body formation. The fusion protein can be concentrated to>6 mg/mL using an Amicon filter and appears to be stable for at least 6 months when stored at -80° C. in the presence of a thiol-reducing agent. […] Specific activity is also highly reproducible from batch to batch. Cleavage of the fusion protein with thrombin followed by repeat glutathione-affinity chromatography has afforded GST-free AANAT.
Quantitatively, the specific activity is essentially identical to the conventional radioactive assay. Importantly, there is no evidence of significant uncoupling of CoASH production and amide formation with any substrates (or non-substrates) tested.
Commercially available bromotrifluoromethyl ketone was converted to the oxime by reaction with hydroxylamine. The oxime was used to generate the vinyl nitroso derivative which was used in situ to react in a 4+2 cycloaddition and produce the 3-substituted indole. Reduction of this material with LiAlH4 led to generation of racemic a-trifluoromethyltryptamine. a-Trifluoromethyltryptamine was calculated to have a primary amine pKa of approximately 6. […] It is not clear from these studies if the lack of tight binding of a-trifluoromethyltryptamine represents steric or electronic repulsion of the fluorines offset by the tighter binding of the neutral amine function, or if a positively charged amine is the preferred state for binding to AANAT (65).

The target of test [3] is T2, GST-AANAT (Ovis aries, UniProt Q29495).
T2 construct: The entire open reading frame of the DNA encoding sheep AANAT in the plasmid vector pET15b; made in house; host or cells: Escherichia coli BL21(DE3)pLysS
Nature of the test: Kinetic measurements with inhibitors of GST-AANAT. Type of test: biochemical, sheep. The protocol: (§1) DTNB Product Detection Assay
(§2) This assay is based on the detection of CoASH generated during acetyl transfer by reaction with the thiol reagent DTNB (19). […] Reactions were initiated with enzyme (3 μl, 5-30 nM final concentration) that had been prediluted (10-100 fold) in 50 mM sodium phosphate, 500 mM NaCl, 2 mM EDTA, and 0.05 mg/ml bovine serum albumin in the absence of reducing agent immediately before use and maintained on ice during the assay. The reactions were quenched for 0-3 min with 0.6 ml of a buffer containing guanidinium-HCl (3.2 M), sodium phosphate (0.1 M), pH 6.8. These mixtures were treated with 0.1 ml of DTNB (2 mM, 0.1 M sodium phosphate, pH 6.8, 10 mM EDTA), vortexed, and allowed to stand for 5 min before absorbance readings were performed at 412 nm (thiophenolate-quantified assuming ε=13.7×10^3 M^-1 cm^-1) (19). Background absorbances (with all components added including enzyme) were measured and subtracted from the total absorbance. […] The rate of conversion of acetyl-CoA to CoASH in the absence of amine was negligible over the course of the assay.
Kinetic Measurements with Inhibitors
.upsilon.=Vm ·S/Km (1+I/Kis) (Eq. 3) using a nonlinear least squares approach. The fixed substrate was assumed to be saturating.
.upsilon.=Vm ·S/[Km (1+I/Kis)+S(1+I/Kii)](Eq. […]
using a nonlinear least squares approach.
V=Vm ·S/[Km +S(1+I/Kii)] (Eq. 5)
The abbreviations are Kii =Ki intercept and Kis =Ki slope based on double-reciprocal plot analysis according to the nomenclature of Cleland (21). The data for individual experiments with each inhibitor versus a varied substrate were fit to all three inhibitor models. Choice of kinetic fit was based on a combination of visual inspection and comparison of S.E. values and residuals for all three inhibition types

Test [4] has as its target T1, AANAT. Nature of the test: Viscosity studies with sucrose as microviscogen. The settings on record: for slope of kcat-control/kcat-viscogen vs. relative viscosity: kcat effect (FIG. 10); for rate-determining step: viscosity studies. On the set-up: The entire open reading frame of the DNA encoding sheep AANAT in the plasmid vector pET15b; GST (glutathione S-transferase, thrombin-cleavable) (N); made in house; host or cells: Escherichia coli. The format is biochemical, sheep. An excerpt: An important part of enzyme mechanistic analysis is to determine which step(s) is (are) rate-determining for the enzyme reaction. After the binding of the substrates to the enzyme, there are several potential rate-determining steps, the chemical step or one of the product release steps.
Viscosity effects can be useful for distinguishing product release steps from non-diffusional steps (66). The principle of using viscosity effects to study enzyme reaction kinetics is based on the fundamental inverse relationship between microviscosity and diffusional rates. Thus a linear increase in microviscosity caused by a microviscogen such as sucrose causes a linear decrease in the diffusion of small molecules. Since little diffusion is involved in the chemical step, this step is taken as viscosity-insensitive. However, viscogenic agents (which are used at rather high concentrations) can cause non-diffusion related effects by interacting with the enzyme or substrate. Controls for these non-diffusional effects must be carried out. […] Since poor substrates in general would be expected to have reduced kcat values because the rate of their chemical steps are reduced, any viscosity effects observed would be expected to be related to non-diffusional or "artifactual" effects.

In test [5] the target is GST-AANAT fusion (Ovis aries, UniProt Q29495). The experiment in a line: DTNB product detection assay, apparent substrate kinetics with GST-AANAT. As to the method:
as §1
This assay is based on the detection of CoASH generated during acetyl transfer by reaction with the thiol reagent DTNB (19). […] Reactions were initiated with enzyme (3 μl, 5-30 nM final concentration) that had been prediluted (10-100 fold) in 50 mM sodium phosphate, 500 mM NaCl, 2 mM EDTA, and 0.05 mg/ml bovine serum albumin in the absence of reducing agent immediately before use and maintained on ice during the assay. The reactions were quenched for 0-3 min with 0.6 ml of a buffer containing guanidinium-HCl (3.2 M), sodium phosphate (0.1 M), pH 6.8. […] Background absorbances (with all components added including enzyme) were measured and subtracted from the total absorbance.

Test [6] deals with T2, GST-AANAT. The experiment in a line: Tryptophol tested as alternative substrate of GST-AANAT. Type of test: biochemical, sheep. The settings on record: 1 mM tryptophol, 1 mM acetyl-CoA, up to 3 min. As to the method: as §1, §2
The structural analog to tryptamine in which the primary amine function is replaced by a hydroxyl function (tryptophol) (see FIG. 4) could theoretically be an alternative AANAT substrate.

[7] abbreviates: varied substrate acetyl-CoA, tryptamine 0.2 mM (subsaturating).
Setting [8] is: varied substrate acetyl-CoA, tryptamine 0.2 mM, read-out: Ksi.
The mark [9] stands for this setting: varied substrate tryptamine, acetyl-CoA 1 mM.
[10] abbreviates: varied substrate tryptamine, acetyl-CoA 1 mM, read-out: Kis.

T2 sequence (Q29495 other isoform, or with tags, fused parts or gaps): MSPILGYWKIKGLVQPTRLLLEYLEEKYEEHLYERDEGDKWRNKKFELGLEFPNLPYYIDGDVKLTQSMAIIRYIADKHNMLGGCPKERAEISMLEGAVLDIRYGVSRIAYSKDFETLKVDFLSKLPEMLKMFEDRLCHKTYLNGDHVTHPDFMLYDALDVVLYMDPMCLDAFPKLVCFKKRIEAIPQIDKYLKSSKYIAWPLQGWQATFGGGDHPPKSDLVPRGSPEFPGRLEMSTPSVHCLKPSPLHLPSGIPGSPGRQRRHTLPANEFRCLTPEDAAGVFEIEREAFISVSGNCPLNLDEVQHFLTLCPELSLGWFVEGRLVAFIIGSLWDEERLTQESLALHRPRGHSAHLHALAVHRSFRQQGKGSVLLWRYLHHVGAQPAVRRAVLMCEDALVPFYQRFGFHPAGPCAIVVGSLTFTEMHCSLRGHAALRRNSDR
T1 sequence (Q29495 whole entry): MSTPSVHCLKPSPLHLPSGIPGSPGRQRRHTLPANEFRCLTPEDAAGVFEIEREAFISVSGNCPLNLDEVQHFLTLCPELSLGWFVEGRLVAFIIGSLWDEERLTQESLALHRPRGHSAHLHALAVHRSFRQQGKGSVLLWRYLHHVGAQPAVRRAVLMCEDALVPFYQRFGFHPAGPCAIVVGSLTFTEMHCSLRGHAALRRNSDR
Sequence of GST-AANAT fusion (Q29495 whole entry, the tested form may be a part): as the sequence (Q29495 whole entry) above

For the compound `CC(N)Cc1c[nH]c2ccccc12` (racemic) [a-methyltryptamine], in test [1], the AANAT substrate result was “substrates”; the “kcat and Km compared to tryptamine” value is “significantly reduced kcat and Km compared to tryptamine”.
Take `NC(Cc1c[nH]c2ccccc12)C(F)(F)F` (racemic) [a-trifluoromethyltryptamine]: the AANAT substrate result was “not detectably an AANAT substrate” in test [2] and “not to be a substrate” in test [2] (listed as Ya-Trifluoromethyltryptamine). The compound further showed a Ki in test [2] (competitive inhibitor) of 3000 ± 1000 µM.
Consider `CCNC(=O)CCNC(=O)[C@H](O)C(C)(C)COP(=O)(O)OP(=O)(O)OC[C@H]1O[C@@H](n2cnc3c(N)ncnc32)[C@H](O)[C@@H]1OP(=O)(O)O` [Desulfo-CoA, desulfo-CoA], for which the Ki in test [3] (quoted in discussion, read-out: K1) is 1000 µM; in test [3] (varied substrate acetyl-CoA, tryptamine 1 mM, read-out: Kis), 1020 µM and 1000 µM; in test [3] (varied substrate tryptamine, acetyl-CoA 0.2 mM, read-out: Kis), 1340 ± 450 µM; in test [3] (varied substrate tryptamine, acetyl-CoA 0.2 mM, read-out: Ksi), 1490 ± 230 µM. Moreover, the “Kis relative to dissociation constant of acetyl-CoA” value in test [3] (saturating tryptamine) is recorded as 2 fold. Further, the Inhibitor pattern entry in test [3] (varied substrate acetyl-CoA, tryptamine 1 mM) was “linear competitive inhibitor”; in test [3] (varied substrate acetyl-CoA, tryptamine 1 mM, listed as desulfo-CoA) it was “linear competitive”; in test [3] (varied substrate tryptamine, acetyl-CoA 0.2 mM), “noncompetitive inhibitor”; in test [3] (varied substrate tryptamine, acetyl-CoA 0.2 mM, listed as desulfo-CoA) it was “linear noncompetitive”.
For `CC(=O)NCCc1c[nH]c2ccccc12` [N-Acetyltryptamine, N-acetyltryptamine], the Inhibitor pattern result is listed as “uncompetitive” in test [3] (setting [7]); “uncompetitive inhibitor” in test [3] (varied substrate acetyl-CoA, tryptamine 0.2 mM (subsaturating), listed as N-acetyltryptamine); “noncompetitive” in test [3] (setting [9]); “noncompetitive inhibitor; also recorded: linear noncompetitive” in test [3] (varied substrate tryptamine, acetyl-CoA 1 mM, listed as N-acetyltryptamine). Moreover, the Ki was 331 ± 23 µM in test [3] (setting [8]); 205 ± 29 µM in test [3] (setting [10]); 916 ± 160 µM in test [3] (varied substrate tryptamine, acetyl-CoA 1 mM, read-out: Ksi).
As for `CNCCc1c[nH]c2ccccc12` [Nw-methyltryptamine], in test [4] (sucrose), the “slope of kcat-control/kcat-viscogen vs. relative viscosity” value is given as “+0.16±0.03”. For the same compound, the “slope of kcat/Km control/viscogen vs. relative viscosity” value in test [4] (sucrose, kcat/Km effect) is reported as -0.14±0.03. The rate-determining step entry in test [4] is “the chemical step is rate-determining”. Moreover, in test [1], the AANAT substrate result is recorded as “substrates”; the “kcat and Km compared to tryptamine” value was “significantly reduced kcat and Km compared to tryptamine; also recorded: substantially reduced kcat compared to tryptamine”.
The term kcat denotes the number of substrate molecules converted per active site and unit of time at saturation. On to `NCCc1c[nH]c2ccc(O)cc12` [Serotonin, 5-hydroxytryptamine], for which the “kcat(app)” value in test [5] (1 mM (near saturating) concentration of the fixed substrate) came out at 34 ± 2 s⁻¹. Besides, in test [5] (serotonin vs tryptamine), the “kcat(app) and Km(app) compared with tryptamine” value is reported as “nearly indistinguishable from those obtained with tryptamine”. The kcat in test [1] (Table 1, tryptamine analogs) came to 34 ± 1 s⁻¹.
As for `NCCc1c[nH]c2ccccc12` [Tryptamine, tryptamine], the “slope of kcat-control/kcat-viscogen vs. relative viscosity” value in test [4] (sucrose) is recorded as “+0.75±0.08”. For the same compound, in test [4], the rate-determining step result is “product release (or a conformational change associated with product release) is largely rate-determining”.
Turning to `OCCc1c[nH]c2ccccc12` [Tryptophol, tryptophol], the Inhibitor pattern result is reported as “uncompetitive” in test [3] (setting [7]); “linear uncompetitive” in test [3] (varied substrate acetyl-CoA, tryptamine 0.2 mM (subsaturating), listed as trypochol); “uncompetitive inhibitor” in test [3] (varied substrate acetyl-CoA, tryptamine 0.2 mM (subsaturating), listed as tryptophol); “competitive” in test [3] (setting [9]); “linear competitive inhibitor” in test [3] (varied substrate tryptamine, acetyl-CoA 1 mM, listed as tryptophol). In addition, the values for the Ki in test [3] (setting [8]) and in test [3] (setting [10]) were 1360 ± 120 µM and 680 ± 78 µM, respectively. For the same compound, the “Kis relative to Kii in a noncompetitive fit” value in test [3] (versus acetyl-CoA) is “more than 10 times”. In addition, the “acetyl transfer (alternative substrate)” value is recorded as “prevents enzyme-catalyzed acetyl transfer; also recorded: not an alternative substrate” in test [6] and “no detectable transfer took place; also recorded: not a substrate” in test [6] (listed as tryptophol). Also, the “acetylation efficiency relative to tryptamine, fold less” value in test [6] was “at least 400 fold”.

The values are drawn from patent US5990094A, “Inhibitors of sorotonin N-acetyltransferase” (The Rockefeller University, priority 1998, dated 1999).
